Key:
[1] = system: subjects; assay: Phase 1 single dose study: safety and tolerability
Experimental: A phase 1 study with Compound 1 was conducted with single dosing at 0.1 mg, 0.35 mg, 1 mg, 3 mg, and 5 mg. Compound 1 was administered as the L-arginine salt.

[2] = system: male Sprague-Dawley rats; conditions: cited from earlier work
[3] = system: peripheral blood lymphocyte (PBL) counts; assay: Phase 1 single dose study: peripheral blood lymphocyte counts; type: in vivo, human
Experimental: Compound 1 was administered as the L-arginine salt.

O=C(O)C[C@H]1CCc2c1[nH]c1ccc(OCc3ccc(C4CCCC4)c(C(F)(F)F)c3)cc21 [Compound 1, (R)-2-(7-(4-cyclopentyl-3-(trifluoromethyl)benzyloxy)-1,2,3,4-tetrahydrocyclopenta [b]indol-3-yl)acetic acid]
Vital signs, ECGs, pulmonary function tests, ophthalmoscopy, clinical laboratory tests ([1]; in vivo): no other clinically significant safety issues
Maximum tolerated dose ([1]; single dosing): 3 mg
Deaths or serious adverse events ([1]; single dosing 0.1 to 5 mg): no deaths or serious adverse events
Bradycardia [2]: no or substantially no bradycardia
Persistence of PBL nadir ([3]; single dose): 24 h
Time after dosing by which total PBL counts were reduced ([3]; single dose): 2 to 4 h
Time of PBL nadir ([3]; single dose): ≤ 8 h
PBL counts reduced by ([3]; single dose 3 mg): ~40%
PBL counts reduced by ([3]; single dose 5 mg): ~55%
Recovery of PBL counts to baseline ([3]; single dose, after the nadir): 4 days
Absolute number of peripheral blood B cells, T cells, NK cells, and all T cell subsets except TEM cells ([3]; single dosing at 3 and 5 mg): dose responsive decline

Reference: patent US12377071B2, “Methods of treating conditions related to the S1P1 receptor” (Arena Pharmaceuticals, Inc., priority 2015, dated 2025)
